The source of these data is US11306079B2, “3-(5-amino-pyrazin-2-yl)-benzenesulfonamide derivatives and related compounds as PI3K-gamma kinase inhibitors” (Incyte Corporation, priority 2017, dated 2022).

Structures can show the parent of a compound that is named as a salt.

Test [1] deals with Phosphorylated Ribosomal Protein S6 (RPS6) in THP-1 cells. The test is described as follows: THP-1 RPS6 ELISA Assay. Type of test: cell-based. The following applies: Homo sapiens; serum starved THP-1 cells, 2 hours with compound, 10 nM MCP-1 for 15 minutes, Phospho-RPS6 ELISA; read-out: PI3Kγ_THP1_RPS6_ELISA IC50. How it is done:
Example A. THP-1 RPS6 ELISA Assay
To measure the Phosphorylated Ribosomal Protein S6 (RPS6) in cell lysates, THP-1 cells (Human Acute Monocytic Leukemia) are purchased from ATCC (Manassas, Va.) and maintained in RPMI with 10% FBS (Gibco/Life Technologies, Carlsbad, Calif.). For the assay, THP-1 cells are serum starved overnight in RPMI, then plated in RPMI (2×10^5 cells/well in 90 μL) into 96-well flat-bottom tissue culture treated plates (Corning, Corning, N.Y.), in the presence or absence of a concentration range of test compounds. Covered plates are incubated for 2 hours at 37° C., 5% CO2 then treated with or without 10 nM MCP-1 (MYBioSource, San Diego, Calif.) for 15 minutes at 37° C., 5% CO2. Plates are centrifuged at 1600 RPM and supernatants are removed. Cells are lysed in Lysis Buffer (Cell Signaling, Danvers, Mass.) with Protease Inhibitor (Calbiochem/EMD, Germany), PMSF (Sigma, St Louis Mo.), HALTS (Thermo Fisher, Rockford, Ill.) for 30 min on wet ice. Cell lysates are frozen at −80° C. before testing. The lysates are tested in the Human/Mouse/Rat Phospho-RPS6 ELISA (R&D Systems, Inc. Minn, Minn.). The plate is measured using a microplate reader (SpectraMax M5—Molecular Devices, LLC Sunnyvale, Calif.) set to 450 nm with a wavelength correction of 540. IC50 determination is performed by fitting the curve of inhibitor percent inhibition versus the log of the inhibitor concentration using the GraphPad Prism 5.0 software.

Test [2] has as its target PI3Kδ (p110δ/p85α) Recombinant Human Protein (Homo sapiens (Human), UniProt O00329). Description: PI3Kδ Scintillation Proximity Assay. It is filed as biochemical. The following applies: 20 μM PIP2, 2 μM ATP, 3.4 nM PI3Kδ, 120 min, room temperature. From the text: Example C. PI3Kδ Scintillation Proximity Assay
[γ-^33P]ATP (10 mCi/mL) and Wheat Germ Agglutinin (WGA) YSi SPA Scintillation Beads was purchased from Perkin-Elmer (Waltham, Mass.). Lipid kinase substrate, D-myo-Phosphatidylinositol 4,5-bisphosphate (PtdIns(4,5)P2)D (+)-sn-1,2-di-O-octanoylglyceryl, 3-O-phospho linked (PIP2), CAS 204858-53-7, was purchased from Echelon Biosciences (Salt Lake City, Utah). PI3Kδ (p110δ/p85α) Recombinant Human Protein was purchased from Eurofins (St Charles, Mo.). ATP, MgCl2, DTT, EDTA, MOPS and CHAPS were purchased from Sigma-Aldrich (St. Louis, Mo.).
(§1) The kinase reaction was conducted in polystyrene 384-well Greiner Bio-one white plate from Thermo Fisher Scientific in a final volume of 25 μL. Inhibitors were first diluted serially in DMSO and added to the plate wells before the addition of other reaction components. The final concentration of DMSO in the assay was 2%. The PI3Kδ assay was carried out at room temperature in 20 mM MOPS, pH 6.7, 10 mM MgCl2, 5 mM DTT and CHAPS 0.03%. Reactions were initiated by the addition of ATP, the final reaction mixture consisted of 20 μM PIP2, 2 μM ATP, 0.5 μCi [γ-^33P] ATP, 3.4 nM PI3Kδ. Reactions were incubated for 120 min and terminated by the addition of 40 μL SPA beads suspended in quench buffer: 163 mM potassium phosphate pH 7.8, 20% glycerol, 25 mM EDTA. The final concentration of SPA beads is 1.0 mg/mL. After the plate sealing, plates were shaken overnight at room temperature and centrifuged at 1500 rpm for 10 min, the radioactivity of the product was determined by scintillation counting on Topcount (Perkin-Elmer). IC50 determination was performed by fitting the curve of percent of the solvent control activity versus the log of the inhibitor concentration using the GraphPad Prism 6.0 software.
Background: Scintillation proximity formats need no separation of bound from free tracer.

In test [3] the target is PI3Kγ (p110γ) Recombinant Human Protein (Homo sapiens (Human), UniProt P48736). Description: PI3K-γ Scintillation Proximity Assay. Type of test: biochemical. As to conditions: 20 μM PIP2, 2 μM ATP, 13 nM PI3Kγ, 120 min, room temperature.
Description: Example B. PI3K-γ Scintillation Proximity Assay
[γ-^33P]ATP (10 mCi/mL) and Wheat Germ Agglutinin (WGA) YSi SPA Scintillation Beads was purchased from Perkin-Elmer (Waltham, Mass.). Lipid kinase substrate, D-myo-Phosphatidylinositol 4,5-bisphosphate (PtdIns(4,5)P2)D (+)-sn-1,2-di-O-octanoylglyceryl, 3-O-phospho linked (PIP2), CAS 204858-53-7, was purchased from Echelon Biosciences (Salt Lake City, Utah). PI3Kγ (p110γ) Recombinant Human Protein was purchased from Life technology (Grand island, NY), ATP, MgCl2, DTT, EDTA, MOPS and CHAPS were purchased from Sigma-Aldrich (St. Louis, Mo.).
as §1, with “PI3Kγ” for “PI3Kδ”, “13” for “3.4”, “PI3Kγ.” for “PI3Kδ.”

Sequence of PI3Kδ (p110δ/p85α) Recombinant Human Protein (O00329 whole entry): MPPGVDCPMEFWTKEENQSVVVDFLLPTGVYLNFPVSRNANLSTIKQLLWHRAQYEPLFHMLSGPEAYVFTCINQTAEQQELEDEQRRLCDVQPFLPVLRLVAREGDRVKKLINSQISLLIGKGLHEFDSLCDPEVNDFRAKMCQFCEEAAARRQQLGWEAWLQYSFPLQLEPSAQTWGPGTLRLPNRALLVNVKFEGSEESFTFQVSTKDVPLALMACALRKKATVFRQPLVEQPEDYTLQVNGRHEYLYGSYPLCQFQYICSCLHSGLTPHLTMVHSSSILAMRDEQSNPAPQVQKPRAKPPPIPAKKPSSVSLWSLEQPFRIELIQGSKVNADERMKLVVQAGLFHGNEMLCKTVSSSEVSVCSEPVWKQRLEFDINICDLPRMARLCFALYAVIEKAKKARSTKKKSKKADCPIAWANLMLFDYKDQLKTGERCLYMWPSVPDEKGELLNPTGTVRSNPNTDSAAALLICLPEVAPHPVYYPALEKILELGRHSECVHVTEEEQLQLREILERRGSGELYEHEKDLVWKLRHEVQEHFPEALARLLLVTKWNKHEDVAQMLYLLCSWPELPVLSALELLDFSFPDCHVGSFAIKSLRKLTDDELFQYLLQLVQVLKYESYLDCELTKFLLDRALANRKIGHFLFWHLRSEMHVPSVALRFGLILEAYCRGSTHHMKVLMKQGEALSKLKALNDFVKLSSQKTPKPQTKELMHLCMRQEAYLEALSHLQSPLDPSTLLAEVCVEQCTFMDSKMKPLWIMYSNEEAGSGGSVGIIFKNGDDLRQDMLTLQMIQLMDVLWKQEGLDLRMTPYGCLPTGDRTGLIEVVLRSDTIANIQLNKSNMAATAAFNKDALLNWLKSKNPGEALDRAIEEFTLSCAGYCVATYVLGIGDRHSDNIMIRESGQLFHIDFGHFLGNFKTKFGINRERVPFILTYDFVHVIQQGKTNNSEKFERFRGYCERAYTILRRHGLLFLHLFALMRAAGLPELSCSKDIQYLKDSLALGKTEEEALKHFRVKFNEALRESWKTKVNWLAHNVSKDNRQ
Sequence of PI3Kδ (p110δ/p85α) Recombinant Human Protein (P27986 whole entry partner): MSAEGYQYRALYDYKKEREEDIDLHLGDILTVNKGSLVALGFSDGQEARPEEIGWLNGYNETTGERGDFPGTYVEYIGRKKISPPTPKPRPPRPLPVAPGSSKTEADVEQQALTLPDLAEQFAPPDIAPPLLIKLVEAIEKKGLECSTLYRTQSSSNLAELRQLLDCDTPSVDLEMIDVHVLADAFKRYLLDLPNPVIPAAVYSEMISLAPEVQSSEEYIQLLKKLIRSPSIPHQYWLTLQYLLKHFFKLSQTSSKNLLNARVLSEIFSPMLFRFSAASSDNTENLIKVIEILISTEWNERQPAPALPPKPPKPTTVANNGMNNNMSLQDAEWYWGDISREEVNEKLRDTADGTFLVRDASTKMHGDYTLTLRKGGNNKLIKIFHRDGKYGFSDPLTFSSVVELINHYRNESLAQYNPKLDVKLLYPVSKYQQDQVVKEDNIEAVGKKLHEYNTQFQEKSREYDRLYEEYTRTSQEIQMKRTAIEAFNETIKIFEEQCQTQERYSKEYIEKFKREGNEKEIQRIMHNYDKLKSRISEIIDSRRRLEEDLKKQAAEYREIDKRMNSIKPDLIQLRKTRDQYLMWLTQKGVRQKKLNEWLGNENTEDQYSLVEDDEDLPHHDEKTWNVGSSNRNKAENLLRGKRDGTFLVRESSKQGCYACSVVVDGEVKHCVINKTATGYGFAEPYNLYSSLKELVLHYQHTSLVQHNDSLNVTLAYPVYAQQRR
Sequence of PI3Kγ (p110γ) Recombinant Human Protein (P48736 whole entry): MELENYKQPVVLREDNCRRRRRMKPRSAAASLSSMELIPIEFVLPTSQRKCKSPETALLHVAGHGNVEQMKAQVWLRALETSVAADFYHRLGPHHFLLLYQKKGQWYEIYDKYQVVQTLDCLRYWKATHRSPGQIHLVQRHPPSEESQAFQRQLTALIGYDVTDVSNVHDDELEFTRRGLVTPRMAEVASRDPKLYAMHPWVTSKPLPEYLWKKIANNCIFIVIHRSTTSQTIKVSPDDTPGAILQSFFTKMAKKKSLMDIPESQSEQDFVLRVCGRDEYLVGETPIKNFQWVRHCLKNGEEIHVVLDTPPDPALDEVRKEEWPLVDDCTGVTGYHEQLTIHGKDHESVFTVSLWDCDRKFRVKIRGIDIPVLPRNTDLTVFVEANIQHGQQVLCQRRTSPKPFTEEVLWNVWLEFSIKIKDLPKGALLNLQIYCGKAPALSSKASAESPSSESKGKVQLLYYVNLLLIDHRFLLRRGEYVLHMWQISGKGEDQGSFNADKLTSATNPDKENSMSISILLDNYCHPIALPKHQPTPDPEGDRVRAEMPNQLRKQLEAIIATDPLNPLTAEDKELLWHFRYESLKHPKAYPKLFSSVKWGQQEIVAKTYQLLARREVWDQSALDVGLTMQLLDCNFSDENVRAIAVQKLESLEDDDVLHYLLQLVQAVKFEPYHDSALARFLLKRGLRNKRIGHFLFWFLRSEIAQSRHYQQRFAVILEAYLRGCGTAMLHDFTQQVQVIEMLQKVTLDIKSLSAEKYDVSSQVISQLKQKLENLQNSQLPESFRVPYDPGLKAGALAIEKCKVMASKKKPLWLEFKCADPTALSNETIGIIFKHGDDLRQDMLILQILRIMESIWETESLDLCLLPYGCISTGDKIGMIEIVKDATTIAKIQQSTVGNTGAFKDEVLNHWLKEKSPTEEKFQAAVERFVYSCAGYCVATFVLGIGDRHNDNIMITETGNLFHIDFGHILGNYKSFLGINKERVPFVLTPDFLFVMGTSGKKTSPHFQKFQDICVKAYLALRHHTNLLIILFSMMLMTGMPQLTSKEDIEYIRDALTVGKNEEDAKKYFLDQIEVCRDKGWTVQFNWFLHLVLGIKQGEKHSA

Usually IC50 stands for the concentration that inhibits the measured activity by half. As to `Cc1ccc(S(=O)(=O)NC23CCC(C#N)(C2)C3)cc1-c1cnc(N)c(-c2ncn(C)n2)n1` [Example 46, 3-(5-Amino-6-(1-methyl-1H-1,2,4-triazol-3-yl)pyrazin-2-yl)-N-(4-cyanobicyclo[2.1.1]hexan-1-yl)-4-methylbenzenesulfonamide Trifluoroacetate Salt], the values for the IC50 in test [1], in test [2] and in test [3] were not above 500 nM, not above 100 nM and not above 100 nM, respectively.
In the case of `Cc1ccc(S(=O)(=O)NC23CNC(C2)C3)cc1-c1cnc(N)c(-n2cccn2)n1` [Example 58, 3-(5-Amino-6-(1H-pyrazol-1-yl)pyrazin-2-yl)-N-(2-azabicyclo[2.1.1]hexan-4-yl)-4-methylbenzenesulfonamide trifluoroacetate salt], the concentration for half-maximal inhibition (IC50) is not above 1000 nM in test [1], not above 500 nM in test [2] and not above 100 nM in test [3].
On to `[2H]C([2H])([2H])c1ccc(S(=O)(=O)NC23CCN(CC2)C3)cc1-c1cnc(N)c(-c2cnco2)n1` [Example 94, 3-(5-amino-6-(oxazol-5-yl)pyrazin-2-yl)-N-(1-azabicyclo[2.2.1]heptan-4-yl)-4-(methyl-d3)benzenesulfonamide], for which the half-maximal inhibitory concentration (IC50) is not above 100 nM in test [1], not above 500 nM in test [2] and not above 100 nM in test [3].
As to `Cc1ccc(S(=O)(=O)NC23CC(C#N)(C2)C3)cc1-c1cnc(N)c(-n2ccnn2)n1` [Example 43, 3-(5-Amino-6-(1H-1,2,3-triazol-1-yl)pyrazin-2-yl)-N-(3-cyanobicyclo[1.1.1]pentan-1-yl)-4-methylbenzenesulfonamide Trifluoroacetate Salt], the values for the IC50 in test [1], in test [2] and in test [3] were not above 100 nM, not above 500 nM and not above 100 nM, respectively.
For `[2H]C([2H])([2H])c1ccc(S(=O)(=O)NC23CCN(CC2)C3)cc1-c1cnc(N)c(-c2cnc(C)s2)n1` [Example 91, 3-(5-amino-6-(2-methylthiazol-5-yl)pyrazin-2-yl)-N-(1-azabicyclo[2.2.1]heptan-4-yl)-4-(methyl-d3)benzenesulfonamide], the IC50 in test [1], in test [2] and in test [3] was not above 100 nM each time.
Take `Cc1ccc(S(=O)(=O)NC23CCC(C#N)(C2)C3)cc1-c1cnc(N)c(-n2cncn2)n1` [Example 28, 3-(5-Amino-6-(1H-1,2,4-triazol-1-yl)pyrazin-2-yl)-N-(4-cyanobicyclo[2.1.1]hexan-1-yl)-4-methylbenzenesulfonamide trifluoroacetate salt]: the half-maximal inhibitory concentration (IC50) was not above 100 nM in test [1], not above 500 nM in test [2] and not above 100 nM in test [3].
As for `Cc1ccc(S(=O)(=O)NC23CCC(CO)(C2)C3)cc1-c1cnc(N)c(-c2cn(C)nc2C)n1` [Example 13, 3-(5-Amino-6-(1,3-dimethyl-1H-pyrazol-4-yl)pyrazin-2-yl)-N-(4-(hydroxymethyl)bicyclo[2.1.1]hexan-1-yl)-4-methylbenzenesulfonamide trifluoroacetate salt], the IC50 in test [1] was not above 500 nM; in test [2], not above 500 nM; in test [3], not above 100 nM.
`[2H]C([2H])([2H])c1ccc(S(=O)(=O)NC23CCC(C#N)(C2)C3)cc1-c1cnc(N)c(-c2cnc(N(C)C)nc2)n1` [Example 67, 3-(5-Amino-6-(2-(dimethylamino)pyrimidin-5-yl)pyrazin-2-yl)-N-(4-cyanobicyclo[2.1.1]hexan-1-yl)-4-(methyl-d3)benzenesulfonamide trifluoroacetate salt]: the IC50 is not above 100 nM in test [1], not above 500 nM in test [2] and not above 100 nM in test [3].
Regarding `Cc1ccc(S(=O)(=O)NC23CCC(C#N)(C2)C3)cc1-c1cnc(N)c(-n2nccn2)n1` [Example 42, 3-(5-Amino-6-(2H-1,2,3-triazol-2-yl)pyrazin-2-yl)-N-(4-cyanobicyclo[2.1.1]hexan-1-yl)-4-methylbenzenesulfonamide Trifluoroacetate Salt], the figures for the IC50 in test [1], in test [2] and in test [3] were not above 100 nM, not above 500 nM and not above 100 nM, respectively.
As for `Cc1ccc(S(=O)(=O)NC23COC(CO)(C2)C3)cc1-c1cnc(N)c(-c2cn(C)nc2C)n1` [Example 14, 3-(5-Amino-6-(1,3-dimethyl-1H-pyrazol-4-yl)pyrazin-2-yl)-N-(1-(hydroxymethyl)-2-oxabicyclo[2.1.1]hexan-4-yl)-4-methylbenzenesulfonamide trifluoroacetate salt], the results for the IC50 in test [1], in test [2] and in test [3] were not above 500 nM, not above 500 nM and not above 100 nM, respectively.
With `[2H]C([2H])([2H])c1ccc(S(=O)(=O)NC23CCN(CC2)C3)cc1-c1cnc(N)c(-c2ncn(C([2H])([2H])[2H])n2)n1` [Example 92, 3-(5-amino-6-(1-(methyl-d3)-1H-1,2,4-triazol-3-yl)pyrazin-2-yl)-N-(1-azabicyclo[2.2.1]heptan-4-yl)-4-(methyl-d3)benzenesulfonamide], the half-inhibitory concentration (IC50) was not above 500 nM in test [1], not above 100 nM in test [2] and not above 100 nM in test [3].
On to `[2H]C([2H])([2H])c1ccc(S(=O)(=O)NC23CCN(CC2)C3)cc1-c1cnc(N)c(-n2cncn2)n1` [Example 90, 3-(5-amino-6-(1H-1,2,4-triazol-1-yl)pyrazin-2-yl)-N-(1-azabicyclo[2.2.1]heptan-4-yl)-4-(methyl-d3)benzenesulfonamide], for which the concentration for half-maximal inhibition (IC50) in test [1], in test [2] and in test [3] was not above 100 nM throughout.
For the compound `[2H]C([2H])([2H])c1ccc(S(=O)(=O)NC23CCN(CC2)C3)cc1-c1cnc(N)c(-c2ccncn2)n1` [Example 95, 3-(5-amino-6-(pyrimidin-4-yl)pyrazin-2-yl)-N-(1-azabicyclo[2.2.1]heptan-4-yl)-4-(methyl-d3)benzenesulfonamide], the half-maximal inhibitory concentration (IC50) in test [1], in test [2] and in test [3] was not above 100 nM throughout.
